Like-named read-outs stand apart in the source and are kept apart here.
Legend:
hemorrhagic shock model = conditions: for Exsanguinated/body weight (ml/100 g): exsanguinated volume per 100 g of body weight to maintain blood pressure at 30-35 mmHg
Procedure: In this Example, the effect of hydrogen gas on a hemorrhagic shock model was evaluated according to the test protocol shown in FIG. 1.
With SD rats (male, 250-300 g), an anesthetic drug was intraperitoneally administered to perform general anesthesia. Subsequently, a PE catheter was inserted into the left femoral artery to perform direct arterial pressure monitoring, and further, an exsanguination catheter from the right femoral artery and a left ventricle catheter for cardiac function measurement from the right common artery were each inserted.
The shock phase was initiated with the initiation of exsanguination. Exsanguination was slowly performed over 15 minutes, and for a total of 60 minutes since the initiation of exsanguination, the mean arterial pressure was maintained at 30-35 mmHg.
The resuscitation phase was initiated with the initiation of resuscitation by transfusion. Transfusion resuscitation by four times the exsanguinated volume of saline was performed over 15 minutes. Test gas inhalation (hydrogen group (21% oxygen+1.3% hydrogen) and control group (21% oxygen)) were performed for a total of 3 hours from the initiation of exsanguination to 2 hours after the initiation of resuscitation. In doing so, cardiac function (LVEDP, ±dP/dt) during the same period was also recorded.
The initiation of the observation phase was 2 hours after the initiation of the resuscitation phase, and observation was performed for 4 hours thereafter (6 hours from the initiation of the resuscitation phase). During this period, blood pressure (systolic, diastolic, mean), heart rate, and the like were measured with artificial respiration in room air.
Lactic acid value and blood gas at the initiation point of shock phase (baseline), the initiation point of resuscitation phase (0 minute), the initiation point of observation phase (120 minutes), and the end-of-test timepoint (360 minutes) were each measured and evaluated.

[1] = system: rat hemorrhagic shock model; conditions: 6 hours after initiation of resuscitation; 1.3% hydrogen+26% oxygen+72.7% nitrogen inhaled 0 to 120 minutes (resuscitation phase only); control 30%
Procedure: In this test, improvement of the survival rate by hydrogen inhalation at the initiation point of resuscitation after shock in rat hemorrhagic shock model was evaluated.
The procedure in SD rats (250-300 g) to exsanguinate so that mean arterial pressure of 30-35 mmHg was maintained for 60 minutes, and then resuscitate with four times the exsanguinated volume of saline over 15 minutes to evaluate the survival rate at 6 hours after initiation of resuscitation was according to [Example 1].
In this test, test gas was given by inhalation as follows.

[2] = change over time after initiation of resuscitation, vs control group
[3] = change over time after initiation of resuscitation, vs control group, throughout the observation period
[4] = electrolyte at 120 minutes, vs control group

In the case of [HH] [hydrogen gas], the heart rate (hemorrhagic shock model; after initiation of resuscitation, vs control group) is reported as “no great difference”, the pH (hemorrhagic shock model; blood gas at 120 minutes, vs control group, normal value about 7.4) is reported as “statistically significantly higher” and the HCO3 (hemorrhagic shock model; blood gas at 120 minutes, vs control group, normal value about 24) is reported as “statistically significantly higher”. The “BE (base excess)” value (hemorrhagic shock model; blood gas at 120 minutes, vs control group, normal value about -2) was “statistically significantly improved”, the “left ventricular end-diastolic pressure (LVEDP)” value (hemorrhagic shock model; [2]) was “no statistically significantly difference” and the “negative dP/dt” value (hemorrhagic shock model; [2]) was “no statistically significantly difference”. For the same compound, the “positive dP/dt” value (hemorrhagic shock model; [2]) was “no statistically significantly difference”, the diastolic blood pressure (hemorrhagic shock model; [3]) was “higher value” and the mean blood pressure (hemorrhagic shock model; [3]) was “higher value”. The systolic blood pressure (hemorrhagic shock model; [3]) was “higher value”, the K (hemorrhagic shock model; [4]) was “statistically significantly lower” and the Na (hemorrhagic shock model; [4]) was “no statistically significant difference”. The “survival (individuals surviving)” value (hemorrhagic shock model; end-of-test timepoint at 6 hours after initiation of resuscitation, control 3/10) was 8/10, the “Exsanguinated/body weight (ml/100 g)” value (hemorrhagic shock model; 21% oxygen+1.3% hydrogen, N = 15) was 2.60±0.40 ml/100 g and the “Exsanguinated/body weight (ml/100 g)” value (hemorrhagic shock model; 21% oxygen+1.3% hydrogen, N = 15, listed as H2) was 2.60 ± 0.40 ml/100 g. The “Exsanguinated” value (hemorrhagic shock model; exsanguinated volume to maintain mean arterial pressure at 30-35 mmHg, 21% oxygen+1.3% hydrogen, N = 15) was 7.03 ± 1.15 mL, the “hemoglobin (Hb)” value (hemorrhagic shock model; extent of anemia at 120 minutes, vs control group) was “no statistically significant difference” and the lactic acid value (hemorrhagic shock model; initiation point of observation phase (120 minutes), vs control group, normal value 1.0 or less) was “statistically significantly lower”. The “PaCO2 (Partial pressure of carbon dioxide)” value (hemorrhagic shock model; oxygenation indicator at 120 minutes, vs control group, normal around 40 mmHg) was “no statistical difference”, the “PaO2 (Partial pressure of oxygen)” value (hemorrhagic shock model; oxygenation indicator at 120 minutes, vs control group, normal around 100 mmHg) was “higher values for the control group” and the survival rate [1] was 50%.
